Measurements as given in ChEMBL document CHEMBL3991601, “The target landscape of clinical kinase drugs” (Science, 2017).
Activity calls are given as the source filed them. Cut-off read from the data, not from the text of the source, for most assays here: actives have a measured Kd and inactives only a lower limit.

What was measured:
[1] = molecular target: Interleukin-1 receptor-associated kinase 1 (Homo sapiens, UniProt P51617)
[2] = molecular target: Serine/threonine-protein kinase N1 (Homo sapiens, UniProt Q16512)
Sequence of Serine/threonine-protein kinase N1 (Q16512 whole entry): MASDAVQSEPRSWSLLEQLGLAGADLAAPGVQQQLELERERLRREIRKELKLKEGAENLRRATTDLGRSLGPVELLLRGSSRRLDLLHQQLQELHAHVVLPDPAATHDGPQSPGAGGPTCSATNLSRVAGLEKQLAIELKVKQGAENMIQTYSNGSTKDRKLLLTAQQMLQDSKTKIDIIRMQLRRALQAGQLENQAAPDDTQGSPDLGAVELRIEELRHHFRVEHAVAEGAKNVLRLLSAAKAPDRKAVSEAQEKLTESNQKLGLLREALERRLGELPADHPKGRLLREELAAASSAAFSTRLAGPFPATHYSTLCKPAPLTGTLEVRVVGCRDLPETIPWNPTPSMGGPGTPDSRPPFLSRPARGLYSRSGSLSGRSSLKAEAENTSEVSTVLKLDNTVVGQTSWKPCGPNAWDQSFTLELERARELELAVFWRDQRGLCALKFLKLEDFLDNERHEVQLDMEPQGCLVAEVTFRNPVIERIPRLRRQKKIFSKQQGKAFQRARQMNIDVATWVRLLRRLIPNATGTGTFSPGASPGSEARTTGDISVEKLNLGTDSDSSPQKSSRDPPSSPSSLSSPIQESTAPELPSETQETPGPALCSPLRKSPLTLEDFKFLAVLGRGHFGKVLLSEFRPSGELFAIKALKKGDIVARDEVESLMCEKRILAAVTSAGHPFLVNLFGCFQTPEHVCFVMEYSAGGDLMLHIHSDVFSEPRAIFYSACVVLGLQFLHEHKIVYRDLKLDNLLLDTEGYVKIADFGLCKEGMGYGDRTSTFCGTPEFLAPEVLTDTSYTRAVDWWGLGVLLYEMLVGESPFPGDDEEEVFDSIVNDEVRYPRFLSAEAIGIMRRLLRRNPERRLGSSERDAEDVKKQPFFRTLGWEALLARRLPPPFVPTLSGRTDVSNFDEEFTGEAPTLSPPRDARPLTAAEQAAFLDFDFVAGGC

[3] = molecular target: Dual specificity tyrosine-phosphorylation-regulated kinase 1A (Homo sapiens, UniProt Q13627)
[4] = molecular target: Casein kinase I isoform delta (Homo sapiens, UniProt P48730)
Sequence of Casein kinase I isoform delta (P48730 whole entry, canonical isoform): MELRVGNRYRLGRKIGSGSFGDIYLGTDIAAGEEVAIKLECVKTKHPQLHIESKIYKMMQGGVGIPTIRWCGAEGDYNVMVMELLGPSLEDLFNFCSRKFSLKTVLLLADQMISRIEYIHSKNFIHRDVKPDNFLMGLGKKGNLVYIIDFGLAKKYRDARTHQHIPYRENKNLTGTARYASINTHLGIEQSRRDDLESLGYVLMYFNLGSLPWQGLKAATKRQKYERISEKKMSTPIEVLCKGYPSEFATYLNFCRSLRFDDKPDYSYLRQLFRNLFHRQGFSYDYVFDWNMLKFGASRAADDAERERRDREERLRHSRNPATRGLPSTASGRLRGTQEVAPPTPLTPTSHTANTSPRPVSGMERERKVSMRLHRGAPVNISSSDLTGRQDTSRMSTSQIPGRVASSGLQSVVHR

[5] = molecular target: T1, General transcription and DNA repair factor IIH helicase subunit XPD (Homo sapiens, UniProt P18074); details: read-out: Kd apparent; k-562, colo 205, sk-n-be(2) and mv-4-11
T1 sequence (P18074 whole entry): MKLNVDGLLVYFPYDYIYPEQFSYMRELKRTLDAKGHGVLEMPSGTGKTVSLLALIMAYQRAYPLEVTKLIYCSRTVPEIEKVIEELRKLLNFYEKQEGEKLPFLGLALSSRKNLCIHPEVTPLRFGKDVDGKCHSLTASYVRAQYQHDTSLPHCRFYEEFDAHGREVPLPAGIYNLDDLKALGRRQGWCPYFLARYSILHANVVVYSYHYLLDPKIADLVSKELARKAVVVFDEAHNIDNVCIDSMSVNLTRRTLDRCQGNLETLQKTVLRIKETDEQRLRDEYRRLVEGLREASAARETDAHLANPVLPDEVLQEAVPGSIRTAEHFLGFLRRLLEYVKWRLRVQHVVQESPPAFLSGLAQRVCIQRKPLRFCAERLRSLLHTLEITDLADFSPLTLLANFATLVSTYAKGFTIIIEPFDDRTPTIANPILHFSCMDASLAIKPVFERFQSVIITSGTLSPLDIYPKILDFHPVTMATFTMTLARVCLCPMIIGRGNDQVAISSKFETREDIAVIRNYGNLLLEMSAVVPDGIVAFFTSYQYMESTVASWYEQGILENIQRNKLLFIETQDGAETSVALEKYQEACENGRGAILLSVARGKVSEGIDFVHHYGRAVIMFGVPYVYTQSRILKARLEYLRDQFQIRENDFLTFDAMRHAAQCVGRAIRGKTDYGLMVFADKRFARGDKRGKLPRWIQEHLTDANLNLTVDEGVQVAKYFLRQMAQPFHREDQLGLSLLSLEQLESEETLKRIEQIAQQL

[6] = molecular target: Ribosomal protein S6 kinase alpha-1 (Homo sapiens, UniProt Q15418)
Sequence of Ribosomal protein S6 kinase alpha-1 (Q15418 whole entry): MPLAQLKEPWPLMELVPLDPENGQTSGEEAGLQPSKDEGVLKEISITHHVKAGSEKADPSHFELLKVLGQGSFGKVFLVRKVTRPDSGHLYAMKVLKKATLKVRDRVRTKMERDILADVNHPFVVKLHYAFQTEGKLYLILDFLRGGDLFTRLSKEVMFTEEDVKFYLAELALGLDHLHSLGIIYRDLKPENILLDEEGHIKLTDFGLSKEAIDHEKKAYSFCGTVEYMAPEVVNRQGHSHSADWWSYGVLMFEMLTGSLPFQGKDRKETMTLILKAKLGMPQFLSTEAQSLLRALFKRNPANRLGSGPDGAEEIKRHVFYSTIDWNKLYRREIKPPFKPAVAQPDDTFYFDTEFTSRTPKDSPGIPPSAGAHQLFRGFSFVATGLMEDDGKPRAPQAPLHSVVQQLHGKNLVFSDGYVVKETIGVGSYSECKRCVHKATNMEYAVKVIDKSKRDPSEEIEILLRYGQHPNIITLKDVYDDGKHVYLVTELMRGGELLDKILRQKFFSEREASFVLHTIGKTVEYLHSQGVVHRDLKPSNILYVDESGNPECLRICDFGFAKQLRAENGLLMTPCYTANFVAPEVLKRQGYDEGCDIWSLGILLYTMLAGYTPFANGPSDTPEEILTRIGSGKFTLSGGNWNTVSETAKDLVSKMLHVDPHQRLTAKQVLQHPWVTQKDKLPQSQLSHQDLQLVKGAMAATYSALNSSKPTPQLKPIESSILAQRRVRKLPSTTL

[7] = molecular target: T2, Glycogen phosphorylase, brain form (Homo sapiens, UniProt P11216)
T2 sequence (P11216 whole entry): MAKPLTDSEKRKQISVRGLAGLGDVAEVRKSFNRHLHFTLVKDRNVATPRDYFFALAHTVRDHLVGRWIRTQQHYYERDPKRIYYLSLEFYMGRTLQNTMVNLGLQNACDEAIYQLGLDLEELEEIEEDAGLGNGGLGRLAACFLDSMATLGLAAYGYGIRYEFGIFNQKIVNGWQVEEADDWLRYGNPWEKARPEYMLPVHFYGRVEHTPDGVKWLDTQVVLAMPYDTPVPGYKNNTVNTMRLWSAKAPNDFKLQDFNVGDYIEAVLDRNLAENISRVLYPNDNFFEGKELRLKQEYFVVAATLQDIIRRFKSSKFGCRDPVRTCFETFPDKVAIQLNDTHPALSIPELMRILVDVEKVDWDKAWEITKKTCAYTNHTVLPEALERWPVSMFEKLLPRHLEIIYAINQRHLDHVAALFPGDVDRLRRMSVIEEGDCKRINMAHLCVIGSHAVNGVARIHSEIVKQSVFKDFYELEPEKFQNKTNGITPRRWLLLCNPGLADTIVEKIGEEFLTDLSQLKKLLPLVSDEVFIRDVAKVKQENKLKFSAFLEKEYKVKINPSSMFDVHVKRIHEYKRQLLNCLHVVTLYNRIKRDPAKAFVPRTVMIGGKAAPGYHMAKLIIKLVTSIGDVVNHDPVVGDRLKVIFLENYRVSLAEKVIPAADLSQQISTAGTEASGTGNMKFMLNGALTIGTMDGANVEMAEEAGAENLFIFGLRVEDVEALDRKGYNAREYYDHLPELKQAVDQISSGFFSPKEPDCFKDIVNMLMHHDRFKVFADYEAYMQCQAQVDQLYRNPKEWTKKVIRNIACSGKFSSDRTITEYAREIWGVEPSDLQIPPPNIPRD

[8] = molecular target: T3, RNA cytidine acetyltransferase (Homo sapiens, UniProt Q9H0A0)
T3 sequence (Q9H0A0 whole entry): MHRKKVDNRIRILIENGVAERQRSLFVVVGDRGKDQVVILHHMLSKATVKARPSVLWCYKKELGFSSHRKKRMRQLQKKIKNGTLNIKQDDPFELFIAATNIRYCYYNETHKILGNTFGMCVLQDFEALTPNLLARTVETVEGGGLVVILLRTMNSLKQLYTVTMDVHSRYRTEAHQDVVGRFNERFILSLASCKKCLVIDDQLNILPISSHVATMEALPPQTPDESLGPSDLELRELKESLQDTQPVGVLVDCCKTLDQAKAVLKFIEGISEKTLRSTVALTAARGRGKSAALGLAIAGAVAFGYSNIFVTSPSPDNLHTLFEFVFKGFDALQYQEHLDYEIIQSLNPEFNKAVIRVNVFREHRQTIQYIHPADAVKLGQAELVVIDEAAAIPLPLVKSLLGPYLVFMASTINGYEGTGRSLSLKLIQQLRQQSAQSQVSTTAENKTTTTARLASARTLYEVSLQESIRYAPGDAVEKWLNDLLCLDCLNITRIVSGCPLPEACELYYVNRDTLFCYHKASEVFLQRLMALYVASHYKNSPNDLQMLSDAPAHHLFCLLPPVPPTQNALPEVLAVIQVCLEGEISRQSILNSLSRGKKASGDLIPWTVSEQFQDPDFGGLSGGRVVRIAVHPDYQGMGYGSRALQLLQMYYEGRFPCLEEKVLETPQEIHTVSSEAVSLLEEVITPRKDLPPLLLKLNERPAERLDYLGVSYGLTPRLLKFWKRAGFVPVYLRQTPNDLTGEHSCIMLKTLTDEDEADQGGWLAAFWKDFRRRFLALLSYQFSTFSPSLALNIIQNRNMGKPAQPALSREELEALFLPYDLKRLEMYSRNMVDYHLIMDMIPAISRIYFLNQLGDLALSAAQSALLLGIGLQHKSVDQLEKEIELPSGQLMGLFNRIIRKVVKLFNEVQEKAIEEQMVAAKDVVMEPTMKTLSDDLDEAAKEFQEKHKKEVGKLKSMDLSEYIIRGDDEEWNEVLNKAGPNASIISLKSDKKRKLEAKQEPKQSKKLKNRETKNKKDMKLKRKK

[9] = molecular target: Rho-associated protein kinase 2 (Homo sapiens, UniProt O75116)
Sequence of Rho-associated protein kinase 2 (O75116 whole entry): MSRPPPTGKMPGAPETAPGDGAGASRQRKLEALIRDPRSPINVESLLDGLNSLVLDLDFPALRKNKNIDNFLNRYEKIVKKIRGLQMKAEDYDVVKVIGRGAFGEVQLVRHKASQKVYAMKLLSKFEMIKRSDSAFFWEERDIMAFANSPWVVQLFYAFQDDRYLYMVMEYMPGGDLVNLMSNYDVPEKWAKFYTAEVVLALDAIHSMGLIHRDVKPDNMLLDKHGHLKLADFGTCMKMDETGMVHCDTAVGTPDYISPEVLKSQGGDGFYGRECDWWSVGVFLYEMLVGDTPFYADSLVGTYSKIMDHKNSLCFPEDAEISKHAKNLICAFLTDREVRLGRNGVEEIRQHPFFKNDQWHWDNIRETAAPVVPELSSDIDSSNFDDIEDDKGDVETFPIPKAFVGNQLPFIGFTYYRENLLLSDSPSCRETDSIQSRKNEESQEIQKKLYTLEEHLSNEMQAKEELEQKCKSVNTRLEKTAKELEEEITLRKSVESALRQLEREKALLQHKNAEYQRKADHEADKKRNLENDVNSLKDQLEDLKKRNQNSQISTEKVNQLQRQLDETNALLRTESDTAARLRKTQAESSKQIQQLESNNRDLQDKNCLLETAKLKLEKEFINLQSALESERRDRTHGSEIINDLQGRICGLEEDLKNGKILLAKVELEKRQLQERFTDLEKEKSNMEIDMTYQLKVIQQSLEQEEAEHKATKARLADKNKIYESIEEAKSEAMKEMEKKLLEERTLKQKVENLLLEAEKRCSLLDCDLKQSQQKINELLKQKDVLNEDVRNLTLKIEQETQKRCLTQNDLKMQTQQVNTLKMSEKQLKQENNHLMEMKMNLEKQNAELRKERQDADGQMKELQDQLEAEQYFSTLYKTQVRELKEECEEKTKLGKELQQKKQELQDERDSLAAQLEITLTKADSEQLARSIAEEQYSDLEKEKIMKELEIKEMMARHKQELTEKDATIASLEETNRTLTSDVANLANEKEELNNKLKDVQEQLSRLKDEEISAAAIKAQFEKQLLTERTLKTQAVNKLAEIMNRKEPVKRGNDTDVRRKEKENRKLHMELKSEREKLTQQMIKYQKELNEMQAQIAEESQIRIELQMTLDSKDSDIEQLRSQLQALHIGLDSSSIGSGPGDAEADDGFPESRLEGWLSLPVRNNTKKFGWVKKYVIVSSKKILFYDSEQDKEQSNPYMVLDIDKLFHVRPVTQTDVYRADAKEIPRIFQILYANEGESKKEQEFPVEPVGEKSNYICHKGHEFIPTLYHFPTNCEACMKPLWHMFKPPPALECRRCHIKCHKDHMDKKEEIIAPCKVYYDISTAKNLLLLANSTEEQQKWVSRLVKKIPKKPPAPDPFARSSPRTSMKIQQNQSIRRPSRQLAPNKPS
Note: in the data inactive means no Kd found up to 30 µM.

Sequence of Interleukin-1 receptor-associated kinase 1 (P51617 whole entry): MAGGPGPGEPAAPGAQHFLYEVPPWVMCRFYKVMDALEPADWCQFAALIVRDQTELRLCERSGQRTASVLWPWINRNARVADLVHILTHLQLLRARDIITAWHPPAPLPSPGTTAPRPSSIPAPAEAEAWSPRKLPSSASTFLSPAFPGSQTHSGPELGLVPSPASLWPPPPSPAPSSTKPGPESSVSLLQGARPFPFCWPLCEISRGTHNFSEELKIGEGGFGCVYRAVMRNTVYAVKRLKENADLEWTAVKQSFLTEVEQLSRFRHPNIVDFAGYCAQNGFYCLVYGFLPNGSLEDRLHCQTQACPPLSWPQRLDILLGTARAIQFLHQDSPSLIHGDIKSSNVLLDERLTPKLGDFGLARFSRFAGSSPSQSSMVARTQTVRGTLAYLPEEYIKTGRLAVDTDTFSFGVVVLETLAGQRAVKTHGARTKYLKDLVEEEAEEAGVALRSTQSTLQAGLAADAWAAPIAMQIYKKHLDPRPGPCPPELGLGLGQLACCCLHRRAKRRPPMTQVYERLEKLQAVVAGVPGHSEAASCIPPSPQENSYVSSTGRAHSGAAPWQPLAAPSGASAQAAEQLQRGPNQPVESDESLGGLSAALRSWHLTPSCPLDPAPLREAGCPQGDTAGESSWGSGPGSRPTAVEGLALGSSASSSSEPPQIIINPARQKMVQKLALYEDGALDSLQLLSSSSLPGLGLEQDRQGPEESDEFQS

SMILES	Kd [1]	Kd [2]	Kd [3]	Kd [4]	Kd [5]	Kd [6]	Kd [7]	Kd [8]	Kd [9]
CCS(=O)(=O)N1CC(CC#N)(n2cc(-c3ncnc4[nH]ccc34)cn2)C1 [BARICITINIB]	> 30 µM (inactive)	0.104 µM (active)	> 30 µM (inactive)	> 30 µM (inactive)	> 30 µM (inactive)	> 30 µM (inactive)	> 30 µM (inactive)	> 30 µM (inactive)	0.756 µM (active)
Cc1c(F)cc(C(=O)NC2CC2)cc1-c1ccc(C(=O)NCC(C)(C)C)cn1 [LOSMAPIMOD]	> 30 µM (inactive)	> 30 µM (inactive)	> 30 µM (inactive)	> 30 µM (inactive)	> 30 µM (inactive)	> 30 µM (inactive)	> 30 µM (inactive)	> 30 µM (inactive)	> 30 µM (inactive)
CO[C@H]1C[C@@H]2CC[C@@H](C)[C@@](O)(O2)C(=O)C(=O)N2CCCC[C@H]2C(=O)O[C@H]([C@H](C)C[C@@H]2CC[C@@H](OCCO)[C@H](OC)C2)CC(=O)[C@H](C)/C=C(\C)[C@@H](O)[C@@H](OC)C(=O)[C@H](C)C[C@H](C)/C=C/C=C/C=C/1C [EVEROLIMUS]	> 30 µM (inactive)	> 30 µM (inactive)	> 30 µM (inactive)	> 30 µM (inactive)	> 30 µM (inactive)	> 30 µM (inactive)	> 30 µM (inactive)	> 30 µM (inactive)	> 30 µM (inactive)
CCN1CCN(Cc2ccc(-c3cc4c(N[C@H](C)c5ccccc5)ncnc4[nH]3)cc2)CC1 [AEE-788]	> 30 µM (inactive)	> 30 µM (inactive)	> 30 µM (inactive)	> 30 µM (inactive)	> 30 µM (inactive)	> 30 µM (inactive)	> 30 µM (inactive)	> 30 µM (inactive)	> 30 µM (inactive)
CC(=O)Nc1cccc(-n2c(=O)n(C3CC3)c(=O)c3c(Nc4ccc(I)cc4F)n(C)c(=O)c(C)c32)c1 [TRAMETINIB]	> 30 µM (inactive)	> 30 µM (inactive)	> 30 µM (inactive)	> 30 µM (inactive)	> 30 µM (inactive)	> 30 µM (inactive)	> 30 µM (inactive)	> 30 µM (inactive)	> 30 µM (inactive)
O=C(O)[C@]1(Cc2cccc(Nc3nccs3)n2)CC[C@@H](Oc2cccc(Cl)c2F)CC1 [MK-5108]	1.58 µM (active)	> 30 µM (inactive)	> 30 µM (inactive)	> 30 µM (inactive)	> 30 µM (inactive)	> 30 µM (inactive)	> 30 µM (inactive)	> 30 µM (inactive)	> 30 µM (inactive)
C1=C/COCc2cc(ccc2OCCN2CCCC2)Nc2nccc(n2)-c2cccc(c2)COC/1 [PACRITINIB]	0.258 µM (active)	> 30 µM (inactive)	> 30 µM (inactive)	> 30 µM (inactive)	> 30 µM (inactive)	> 30 µM (inactive)	> 30 µM (inactive)	> 30 µM (inactive)	> 30 µM (inactive)
N[C@@H]1CCCN(c2c(/C=C3\SC(=O)NC3=O)cccc2-c2ccccc2)C1	> 30 µM (inactive)	> 30 µM (inactive)	> 30 µM (inactive)	> 30 µM (inactive)	> 30 µM (inactive)	> 30 µM (inactive)	> 30 µM (inactive)	> 30 µM (inactive)	> 30 µM (inactive)
Cc1ccc(NC(=O)c2ccc(CN3CC[C@H](N(C)C)C3)c(C(F)(F)F)c2)cc1Nc1nccc(-c2cncnc2)n1 [BAFETINIB]	2.06 µM	> 30 µM (inactive)	> 30 µM (inactive)	> 30 µM (inactive)	> 30 µM (inactive)	> 30 µM (inactive)	> 30 µM (inactive)	> 30 µM (inactive)	> 30 µM (inactive)
O=C(Nc1ccc(-c2ccnc(Nc3ccc(N4CCOCC4)cc3)n2)cc1)C1CCCN1 (stereo unspecified) [XL-019]	> 30 µM (inactive)	> 30 µM (inactive)	> 30 µM (inactive)	> 30 µM (inactive)	> 30 µM (inactive)	> 30 µM (inactive)	> 30 µM (inactive)	> 30 µM (inactive)	3.97 µM (active)
O=C(c1ccc(F)c(F)c1Nc1ccc(I)cc1F)N1CC(O)([C@@H]2CCCCN2)C1 [COBIMETINIB]	> 30 µM (inactive)	> 30 µM (inactive)	> 30 µM (inactive)	> 30 µM (inactive)	> 30 µM (inactive)	> 30 µM (inactive)	> 30 µM (inactive)	> 30 µM (inactive)	> 30 µM (inactive)
C[C@@H]1CN(Cc2ccc(F)cc2)[C@@H](C)CN1C(=O)c1cc2c(C(=O)C(=O)N(C)C)cn(C)c2cc1Cl [TALMAPIMOD]	> 30 µM (inactive)	> 30 µM (inactive)	> 30 µM (inactive)	> 30 µM (inactive)	> 30 µM (inactive)	> 30 µM (inactive)	> 30 µM (inactive)	> 30 µM (inactive)	> 30 µM (inactive)
Cc1cc(-c2cc(O)ccc2Cl)cc2nnc(Nc3ccc(OCCN4CCCC4)cc3)nc12	> 30 µM (inactive)	> 30 µM (inactive)	> 30 µM (inactive)	> 30 µM (inactive)	> 30 µM (inactive)	> 30 µM (inactive)	> 30 µM (inactive)	> 30 µM (inactive)	> 30 µM (inactive)
COc1cc(CCc2cc(NC(=O)c3ccc(N4C[C@@H](C)N[C@@H](C)C4)cc3)n[nH]2)cc(OC)c1 [AZD-4547]	> 30 µM (inactive)	> 30 µM (inactive)	> 30 µM (inactive)	> 30 µM (inactive)	> 30 µM (inactive)	> 30 µM (inactive)	> 30 µM (inactive)	> 30 µM (inactive)	> 30 µM (inactive)
